Experimental data published in US20040162247A1, “Therapeutic agent or osteoporosis comprising an active ingredient of quercetin derivatives” (priority 2000, published 2004).
Several values for one entry are separate records, joined by “and”; a condition that tells them apart may be missing. Equal values may be shown once. Read-outs that look alike come from different tables or passages of the source. One block for each compound: values may come before it.

Legend:
[1] = Body weight of ovariectomized rats during drug administration
Method: (§1) Female SD (Sprague-Dawley) rats, a model animal for type I osteoporosis occurring after menopause were employed for evaluating pharmacological effectiveness of quercetin. Female rats (10 weeks old) weighing 200 to 300 g, obtained from the Korea Research Institute of Chemical Technology were employed as experimental animals. Experiment was carried out by the procedure which comprises removing ovary, administration of agents to the each group of rats, and at certain days after ovariectomy, the rats were sacrificed and subjected to analyses including measurement of body weight, examination of internal organs, measurement of trabecular bone area, complete blood count, and biochemical analyses of plasma.
(§2) The Sham group, animals operated upon for the surgery as in the ovariectomized rats except for removing ovary, were employed to compare the changes caused solely by ovariectomy in control group which were ovariectomized but no agent was administered. Control group was employed to compare the changes caused by administration of agents in test group which were ovariectomized and administered with testing agents.
(§3) During the period of administration, blood was sampled once a week. After 9-week administration, entire blood was withdrawn with heparin treatment. Following complete blood count (CBC), the blood was centrifuged at 3,000 rpm for 20 minutes to obtain plasma which was stored at −70° C. until use. For measurement of bone mineral density, the lumbar spine L5 and L6, and right tibia were removed and stored separately in 4% (v/v) formalin solution.

ovariectomized rats = assay: Wet weight of internal organs of ovariectomized rats after drug administration; conditions: OVX rats
Method: To find out quercetin effect on internal organ of test animal, liver, kidney, brain, uterus, skin, and tibia were removed from the test animals administered with test agents for 9 weeks after operation and wet weight of each organ was measured (see: Table 4).

mice = conditions: orally administered, M. Sullivan et al. 1951; cited from earlier work
[2] = rat, in vivo
Method: as §1, §2, §3

osteoclasts = assay: Osteoclast proliferation, count of TRAP-positive multinucleated cells; type: cell-based, ICR mice; conditions: for Number of osteoclast (% of control group): day 2, TRAP staining
Method: ICR mice (Korea Research Institute of Chemical Technology, Taejon, Korea) were fed with calcium deficient diet (ICN Biomedicals, Inc., Ohio, U.S.A.) for 4 weeks to activate osteoclasts. The right and left tibiae and femurs of the calcium […] were removed avoiding contamination of surrounding muscle tissues. Femurs and right and left tibiae, classified on the clean bench and kept on ice separately, were added into the α-MEM containing 100 μg/ml streptomycin and then vigorously shaken respectively to extract osteoclasts into the medium. After kept on ice for 5 minutes, the cell suspension was centrifuged at 800×g for 3 minutes and the cell pellet was resuspended in a α-MEM nutrient medium supplemented with 10% FBS, 100 μg/ml streptomycin and 100 unit/ml penicillin. The cell suspension was distributed into wells of a 24-well plate at a cell number of 3.5×10^6/well. To the osteoclasts obtained in Example 2-1 above, quercetin was added to yield concentrations of 1×10^−8 to 1×10^−2 mg/ml. On day 2, the cells were subjected to tartrate-resistant acid phosphatase (TRAP) staining using a commercially available kit (Sigma Chemical Co., U.S.A.), followed by counting of osteoclasts which are TRAP-positive multinucleated cells (MNC), judged by more than three nuclei in a cell stained red (see: Table 2).

[3] = 9 weeks i.p. (E2 1 μg/kg/day; quercetin, genistein 10 mg/kg/day)

- Brain wet weight (ovariectomized rats; [3]): 1.98 ± 0.03 g
- Kidney wet weight (ovariectomized rats; [3]): 1.83 ± 0.03 g
- Liver wet weight (ovariectomized rats; [3]): 10.03 ± 0.36 g
- Skin wet weight (ovariectomized rats; [3]): 188 ± 9 mg
- Tibia wet weight (ovariectomized rats; [3]): 0.537 ± 0.008 g
- Uterus wet weight (ovariectomized rats; [3]): 106 ± 3 mg
SMILES: O=c1c(-c2ccc(O)cc2)coc2cc(O)cc(O)c12 [Genistein, genistein]
- Weight ([1]; OVX rats, 1 week after operation (start of administration)): 242.12 ± 5.96 g
- Body weight increase after ovariectomy (in words) ([1]; OVX rats, compared with control group, E2 1 μg/kg/day, quercetin or genistein 10 mg/kg/day): rapid increase of body weight
- Weight ([1]; OVX rats, i.p. from 1 week after operation (E2 1 μg/kg/day; quercetin, genistein 10 mg/kg/day), 2 weeks after operation): 270.00 ± 8.05 g
- Weight ([1]; OVX rats, i.p. from 1 week after operation (E2 1 μg/kg/day; quercetin, genistein 10 mg/kg/day), 3 weeks after operation): 296.20 ± 7.68 g
- Weight ([1]; OVX rats, i.p. from 1 week after operation (E2 1 μg/kg/day; quercetin, genistein 10 mg/kg/day), 4 weeks after operation): 310.80 ± 7.80 g
- Weight ([1]; OVX rats, i.p. from 1 week after operation (E2 1 μg/kg/day; quercetin, genistein 10 mg/kg/day), 5 weeks after operation): 317.29 ± 7.93 g
- Weight ([1]; OVX rats, i.p. from 1 week after operation (E2 1 μg/kg/day; quercetin, genistein 10 mg/kg/day), 6 weeks after operation): 327.19 ± 8.31 g
- Weight ([1]; OVX rats, i.p. from 1 week after operation (E2 1 μg/kg/day; quercetin, genistein 10 mg/kg/day), 7 weeks after operation): 332.80 ± 9.23 g
- Weight ([1]; OVX rats, i.p. from 1 week after operation (E2 1 μg/kg/day; quercetin, genistein 10 mg/kg/day), 8 weeks after operation): 336.38 ± 9.01 g
- Weight ([1]; OVX rats, i.p. from 1 week after operation (E2 1 μg/kg/day; quercetin, genistein 10 mg/kg/day), 9 weeks after operation): 342.71 ± 8.26 g
- Weight ([1]; OVX rats, i.p. from 1 week after operation (E2 1 μg/kg/day; quercetin, genistein 10 mg/kg/day), 10 weeks after operation): 347.23 ± 7.57 g
- Weight ([1]; before operation (baseline, before administration)): 217.55 ± 7.24 g
- Effect on weight of uterus / uterine hypertrophy (in words) (ovariectomized rats; 9 weeks i.p., compared with control group): did not give rise to change in weight of uterus

SMILES: O=c1c(O)c(-c2ccc(O)c(O)c2)oc2cc(O)cc(O)c12 [Quercetin, quercetin]
- LD50 (mice): not less than 160 mg/kg
- Weight [2]: 221.87 ± 7.57 g
- Inhibitory effect on the osteoclast proliferation (in words) (osteoclasts; 1×10^−8 to 1×10^−4 mg/ml): little inhibitory effect
- Number of osteoclast (% of control group) (osteoclasts; 1 × 10^−2 mg/ml): 25 % of control group and 24.7 ± 5.7 % of control group
- Number of osteoclast (% of control group) (osteoclasts; 1 × 10^−3 mg/ml): 61 % of control group and 61.1 ± 4.1 % of control group
- Number of osteoclast (% of control group) (osteoclasts; 1 × 10^−4 mg/ml): 89.6 ± 3.2 % of control group
- Number of osteoclast (% of control group) (osteoclasts; 1 × 10^−6 mg/ml): 96.8 ± 2.7 % of control group
- Number of osteoclast (% of control group) (osteoclasts; 1 × 10^−8 mg/ml): 100.9 ± 1.8 % of control group
